Like-named read-outs stand apart in the source and are kept apart here.
Columns and labels:
[1] = log P determination by HPLC (EEC Directive 79/831 Annex V.A8); type: physicochemical
Description: The measurements were carried out using an Agilent 1100 LC system with a 50*4.6 Zorbax Eclipse C18 1.8 μm column (oven temperature 55° C., flow rate 2.0 ml/min).
The following mobile phases were used:
Mobile phase A: acetonitrile+1000 μl of formic acid/l
Mobile phase B: Millipore water+900 μl of formic acid/l

[2] = system: larvae of the mustard beetle (Phaedon cochleariae); experiment: Phaedon test (PHAECO spray treatment); details: 7 days
[3] = system: caterpillars of the armyworm (Spodoptera frugiperda); experiment: Spodoptera frugiperda test (SPODFR spray treatment); type: in vivo; details: for pest or weed control at 100 g/ha: Spodoptera frugiperda, foliar, read-out: effect in % (caterpillars killed)
Excerpt: Solvent: 78.0 parts by weight of acetone

[4] = reversed-phase HPLC, Zorbax Eclipse C18 column, determined by HPLC according to EEC Directive 79/831 Annex V.A8, read-out: log P
[5] = application rate 100 g/ha, maize leaf discs

chromatographic logP [1, 4]	SMILES	chromatographic logP ([1]; log P)	pest or weed control at 100 g/ha ([3]; in Zea mays) [%]	also measured
3.92	Cc1cc(C#N)cc(C(=O)NCCC(F)(F)F)c1NC(=O)c1cc(Cn2nnc(C(F)(C(F)(F)F)C(F)(F)F)n2)nn1-c1ncccc1Cl [Example 414]	–	–	–
3.62	Cc1cc(Cl)cc(C(=O)NC2CC2)c1NC(=O)c1cc(Cn2nnc(C(F)(F)C(F)(F)F)n2)nn1-c1ncccc1Br [Example 420]	–	–	–
–	Cc1cc(Cl)cc(C(=O)NC(C)C)c1NC(=O)c1cc(Cn2nnc(-c3ccc(Br)cc3)n2)nn1-c1ncccc1Cl	–	–	Kill in %/7 days ([2]; 0.8 g/ha): 0%
3.31	Cc1cc(Cl)cc(C(=O)NCC#N)c1NC(=O)c1cc(Cn2nnc(C(F)(F)C(F)(F)F)n2)nn1-c1ncccc1Br [Example 421]	–	–	–
–	Cc1cc(F)cc(C(=O)NC2CCC2)c1NC(=O)c1cc(Cn2nnc(C(F)(F)F)n2)nn1-c1ncccc1Cl [Example 51]	3.23	≥ 80	–
–	CSC[C@H](C)NC(=O)c1cc(C#N)cc(C)c1NC(=O)c1cc(Cn2nnnc2C(F)(F)F)nn1-c1ncccc1Cl [Example 193]	2.92	–	–
3.87	Cc1cc(Cl)cc(C(=O)NC(C)C)c1NC(=O)c1cc(Cn2nnc(C(F)(F)C(F)(F)F)n2)nn1-c1ncccc1Br [Example 417]	–	–	–
–	CNC(=O)c1cc(F)cc(C)c1NC(=O)c1cc(Cn2nnc(C(F)F)n2)nn1-c1ncccc1Cl [Example 292]	2.21	≥ 80	–
2.43	CNC(=O)c1cc(S(C)(=O)=O)cc(C)c1NC(=O)c1cc(Cn2nnnc2C(F)(F)F)nn1-c1ccccc1Cl [Example 524]	–	–	–
2.82	Cc1cc(C#N)cc(C(N)=O)c1NC(=O)c1cc(Cn2nnc(C(F)(F)F)n2)nn1-c1ccccc1Cl [Example 439]	–	–	–
–	CSC[C@H](C)NC(=O)c1cc(I)cc(C)c1NC(=O)c1cc(Cn2nnc(C(F)F)n2)nn1-c1ncccc1Cl [Example 278]	3.41	≥ 80	–
3.36	CNC(=O)c1cc(Cl)cc(C)c1NC(=O)c1cc(Cn2nnc(C(F)(F)C(F)(F)F)n2)nn1-c1ncccc1Br [Example 415]	–	–	–
–	Cc1cc(C#N)cc(C(N)=O)c1NC(=O)c1cc(Cn2nnc(C(F)F)n2)nn1-c1ncccc1Cl [Example 306]	1.97	≥ 80	–
–	Cc1cc(Cl)cc(C(N)=O)c1NC(=O)c1cc(Cn2nnc(C(F)(F)F)n2)nn1-c1ncccc1Cl [Example 106]	2.76	≥ 80	–
–	Cc1cc(F)cc(C(=O)NC(C)C2CC2)c1NC(=O)c1cc(Cn2nnc(C(F)F)n2)nn1-c1ncccc1Cl (stereo not shown) [Example 293]	2.92	≥ 80	–
–	CCNC(=O)c1cc(I)cc(C)c1NC(=O)c1cc(Cn2nnc(C(F)F)n2)nn1-c1ncccc1Cl [Example 276]	2.98	–	–
–	Cc1cc(C)c(NC(=O)c2cc(Cn3nnc(C(F)(F)F)n3)nn2-c2ncccc2Cl)c(C(=O)NC(C)C)c1 [Example 79]	3.29	≥ 80	–
–	CNC(=O)c1cc(Cl)cc(C)c1NC(=O)c1cc(Cn2nnnc2C(F)(F)F)nn1-c1ncccc1Cl [drawing 601]	–	–	Kill in %/7 days ([3]; 4 g/ha): 100%
–	Cc1cc(C)c(NC(=O)c2cc(Cn3nnc(C(F)(F)F)n3)nn2-c2ncccc2Cl)c(C(=O)NCC2CC2)c1 [Example 83]	3.35	≥ 80	–
4.41	Cc1cc(Cl)cc(C(=O)NC(C)(C)C)c1NC(=O)c1cc(Cn2nnnc2C(F)(F)C(F)(F)F)nn1-c1ccccc1Cl [Example 536]	–	–	pest or weed control at 100 g/ha [3, 5]: ≥ 80%
4.36	Cc1cc(Cl)cc(C(=O)NC(C)(C)C)c1NC(=O)c1cc(Cn2nnc(C(F)(F)F)n2)nn1-c1ccccc1Cl [Example 534]	–	–	pest or weed control at 100 g/ha [3, 5]: ≥ 80%
–	CCNC(=O)c1cc(Cl)cc(Cl)c1NC(=O)c1cc(Cn2nnc(C(F)F)n2)nn1-c1ncccc1Cl [Example 285]	2.7	≥ 80	–
–	CCNC(=O)c1cc(F)cc(C)c1NC(=O)c1cc(Cn2nnc(C(F)(F)F)n2)nn1-c1ncccc1Cl [Example 35]	2.88	≥ 80	–
–	CNC(=O)c1cc(Cl)cc(C)c1NC(=O)c1cc(Cn2nnnc2C(F)(F)F)nn1-c1ncccc1Cl [drawing 597]	–	–	Kill in %/7 days ([2]; 4 g/ha): 67%
2.9	Cc1cc(Br)cc(C(=O)NCC#N)c1NC(=O)c1cc(Cn2nnnc2C(F)(F)F)nn1-c1ncccc1C(F)(F)F [Example 451]	–	–	–
–	Cc1cc(Cl)cc(C(=O)NC(C)C)c1NC(=O)c1cc(Cn2nnc(C(F)(F)C(F)(F)F)n2)nn1-c1ncccc1Cl [drawing 599]	–	–	Kill in %/7 days ([3]; 0.8 g/ha): 100%
3.78	Cc1cc(Br)cc(C(=O)NC(C)(C)C)c1NC(=O)c1cc(Cn2nnnc2C(F)(F)F)nn1-c1ncccc1C(F)(F)F [Example 458]	–	–	pest or weed control at 100 g/ha [3, 5]: ≥ 80%

chromatographic logP [1, 4]	SMILES	chromatographic logP ([1]; log P)	pest or weed control at 100 g/ha ([3]; in Zea mays) [%]	also measured
–	CCNC(=O)c1cc(C#N)cc(C)c1NC(=O)c1cc(C(C)n2nnc(C(F)(F)F)n2)nn1-c1ncccc1Cl (stereo not shown) [Example 429]	3.11	–	–
4	Cc1cc(Br)cc(C(=O)NC(C)(C)C)c1NC(=O)c1cc(Cn2nnc(C(F)(F)F)n2)nn1-c1ncccc1Br [Example 409]	–	–	–
–	Cc1cc(I)cc(C(=O)NC2CC2)c1NC(=O)c1cc(Cn2nnc(C(F)F)n2)nn1-c1ncccc1Cl [Example 275]	2.96	≥ 80	–
2.8	Cc1cc(C#N)cc(C(=O)NCC#N)c1NC(=O)c1cc(Cn2nnc(C(F)(F)C(F)(F)F)n2)nn1-c1ncccc1Br [Example 416]	–	–	–
2.72	Cc1cc(Br)cc(C(N)=O)c1NC(=O)c1cc(Cn2nnnc2C(F)(F)F)nn1-c1ncccc1C(F)(F)F [Example 454]	–	–	–
–	CC(NC(=O)c1cc(Cl)cc(Cl)c1NC(=O)c1cc(Cn2nnc(C(F)F)n2)nn1-c1ncccc1Cl)C1CC1 (stereo not shown) [Example 283]	3.23	–	–
–	Cc1cc(I)cc(C(=O)NC(C)(C)C)c1NC(=O)c1cc(Cn2nnc(C(F)F)n2)nn1-c1ncccc1Cl [Example 307]	3.5	≥ 80	–
–	Cc1cc(Cl)cc(C(=O)NC(C)C)c1NC(=O)c1cc(Cn2nnc(C(F)(F)C(F)(F)F)n2)nn1-c1ncccc1Cl [drawing 595]	–	–	Kill in %/7 days ([2]; 0.8 g/ha): 100%
–	Cc1cc(F)cc(C(=O)NC2CC2)c1NC(=O)c1cc(Cn2nnc(C(F)F)n2)nn1-c1ncccc1Cl [Example 294]	2.41	≥ 80	–
–	Cc1cc(C#N)cc(C(=O)NC(C)C#N)c1NC(=O)c1cc(Cn2nnc(C(F)(F)F)n2)nn1-c1ncccc1Cl (stereo not shown) [Example 326]	2.76	≥ 80	–
3.52	Cc1cc(C#N)cc(C(=O)NC(C)(C)C)c1NC(=O)c1cc(Cn2nnnc2C(F)(F)F)nn1-c1ccccc1Cl [Example 489]	–	–	pest or weed control at 100 g/ha [3, 5]: ≥ 80%
–	COCC(C)(C)NC(=O)c1cc(C#N)cc(C)c1NC(=O)c1cc(Cn2nnc(C(F)(F)F)n2)nn1-c1ncccc1Cl [Example 356]	3.29	–	–
–	Cc1cc(C#N)cc(C(=O)NCCCCCCO)c1NC(=O)c1cc(Cn2nnc(C(F)(F)F)n2)nn1-c1ncccc1Cl [Example 94]	2.71	–	–
–	Cc1cc(C#N)cc(C(=O)NC(C)C2CCC2)c1NC(=O)c1cc(Cn2nnc(C(F)(F)F)n2)nn1-c1ncccc1Cl (stereo not shown) [Example 90]	3.63	–	–
–	CSC[C@H](C)NC(=O)c1cc(Cl)cc(Cl)c1NC(=O)c1cc(Cn2nnc(C(F)F)n2)nn1-c1ncccc1Cl [Example 288]	3.13	≥ 80	–
–	Cc1cc(C#N)cc(C(=O)NCCN)c1NC(=O)c1cc(Cn2nnc(C(F)(F)F)n2)nn1-c1ncccc1Cl [Example 123]	1.63	–	–
–	Cc1cc(C#N)cc(C(=O)NCC2CC2(Cl)Cl)c1NC(=O)c1cc(Cn2nnnc2C(F)(F)F)nn1-c1ncccc1Cl (stereo not shown) [Example 190]	3.16	≥ 80	–
–	Cc1cc(Br)cc(C(=O)NC(C)C)c1NC(=O)c1cc(Cn2nnc(C(F)F)n2)nn1-c1ncccc1Cl [Example 299]	3.08	≥ 80	–
2.84	CNC(=O)c1cc(Cl)cc(C)c1NC(=O)c1cc(Cn2nnnc2C(F)(F)F)nn1-c1ccccc1 [Example 502]	–	–	pest or weed control at 100 g/ha [3, 5]: ≥ 80%
3.13	Cc1cc(Cl)cc(C(N)=O)c1NC(=O)c1cc(Cn2nnc(C(F)(F)C(F)(F)F)n2)nn1-c1ncccc1Br [Example 418]	–	–	–
–	CSC[C@H](C)NC(=O)c1cc(C#N)cc(C)c1NC(=O)c1cc(Cn2nnc(C(F)F)n2)nn1-c1ncccc1Cl [Example 268]	2.77	≥ 80	–
–	Cc1cc(C#N)cc(C(N)=O)c1NC(=O)c1cc(Cn2nnc(C(F)(F)F)n2)nn1-c1ncccc1Br [Example 324]	–	–	chromatographic logP ([1]; reversed-phase HPLC, Zorbax Eclipse C18 column, by HPLC according to EEC Directive 79/831 Annex V.A8, read-out: log P): 2.46; pest or weed control at 100 g/ha [3, 5]: ≥ 80%
–	COCCNC(=O)c1cc(C#N)cc(C)c1NC(=O)c1cc(Cn2nnnc2C(F)(F)F)nn1-c1ncccc1Cl [Example 209]	2.4	–	–
4.23	Cc1cc(Cl)cc(C(=O)NC(C)(C)C)c1NC(=O)c1cc(Cn2nnc(C(F)(F)C(F)(F)F)n2)nn1-c1ncccc1Br [Example 419]	–	–	–
–	Cc1cc(I)cc(C(=O)NC(C)(C)C)c1NC(=O)c1cc(Cn2nnc(C(F)(F)F)n2)nn1-c1ncccc1Cl [Example 118]	4.12	≥ 80	–
3.03	CNC(=O)c1cc(C#N)cc(C)c1NC(=O)c1cc(Cn2nnc(C(F)(F)C(F)(F)F)n2)nn1-c1ncccc1Br [Example 422]	–	–	–
–	CNC(=O)c1cc(Cl)cc(C)c1NC(=O)c1cc(Cn2nnnc2-c2ccc(C(F)(F)F)cc2)nn1-c1ncccc1Cl [drawing 602]	–	–	Kill in %/7 days ([3]; 4 g/ha): 33%
